± gives the standard deviation of the averaged measurements.
Assays:
[1] = compound: C#Cc1cccc(Nc2ncnc3cc(OCCOC)c(OCCOC)cc23)c1 [ERLOTINIB]; assay: surviving fraction relative to DMSO-only wells; higher = less growth inhibition; settings: exposure time: 5 days
In short: (§1)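 Tumour cell lines were seeded in log phase at 250–500 cells per well into 384-well plates. Starting 24 hours later, inhibitors were present continuously for five days at 0.5, 1, 5, 10, 50, 100, 500 and 1000 nM. Surviving fraction, from CellTiter-Glo luminescence, is normalised to the median of DMSO-only wells. Three screens per line were required, with replicate Pearson r >0.7 and median Z' >0.3 for a line to be kept.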

[2] = compound: COc1cc([C@@H]2c3cc4c(cc3[C@@H](O[C@@H]3O[C@@H]5CO[C@@H](C)O[C@H]5[C@H](O)[C@H]3O)[C@H]3COC(=O)[C@H]23)OCO4)cc(OC)c1O [ETOPOSIDE]; assay: as above; settings: exposure time: 5 days
In short: as §1

Test System	surviving fraction ([1]; 0.5 nM)	surviving fraction ([1]; 1 nM)	surviving fraction ([1]; 5 nM)	surviving fraction ([1]; 10 nM)	surviving fraction ([1]; 50 nM)	surviving fraction ([1]; 100 nM)	surviving fraction ([1]; 500 nM)	surviving fraction ([1]; 1000 nM)	surviving fraction ([2]; 0.5 nM)	surviving fraction ([2]; 1 nM)	surviving fraction ([2]; 5 nM)	surviving fraction ([2]; 10 nM)	surviving fraction ([2]; 50 nM)	surviving fraction ([2]; 100 nM)	surviving fraction ([2]; 500 nM)	surviving fraction ([2]; 1000 nM)
VCAP PROSTATE	1 ± 0.042	0.988 ± 0.16	1.17 ± 0.089	1.15 ± 0.057	1.13 ± 0.093	1.08 ± 0.084	1.11 ± 0.05	1.09 ± 0.093	1.19 ± 0.16	1.07 ± 0.032	1.14 ± 0.11	1.14 ± 0.088	1.07 ± 0.1	1.05 ± 0.092	0.541 ± 0.063	0.421 ± 0.049
VP229 BREAST	1.05 ± 0.087	1.21 ± 0.12	1.17 ± 0.14	1.1 ± 0.086	1.06 ± 0.091	0.825 ± 0.048	0.568 ± 0.048	0.413 ± 0.06	1.11 ± 0.042	1.09 ± 0.16	1.14 ± 0.24	1.19 ± 0.075	1.17 ± 0.062	1.13 ± 0.064	1.18 ± 0.14	1.15 ± 0.084
YAMATO SYNOVIAL	1.28 ± 0.12	1.29 ± 0.088	1.43 ± 0.079	1.26 ± 0.036	1.39 ± 0.071	1.35 ± 0.014	1.31 ± 0.074	1.2 ± 0.15	1.3 ± 0.12	1.32 ± 0.063	1.19 ± 0.051	1.22 ± 0.18	1.26 ± 0.018	1.11 ± 0.096	0.636 ± 0.014	0.575 ± 0.031
ZR751 BREAST	1.01 ± 0.04	1.29 ± 0.17	1.14 ± 0.14	1.05 ± 0.087	0.926 ± 0.14	0.881 ± 0.14	0.71 ± 0.18	0.766 ± 0.045	1.1 ± 0.04	1.1 ± 0.048	1.02 ± 0.067	1.05 ± 0.076	0.996 ± 0.022	0.968 ± 0.089	0.901 ± 0.078	0.7397 ± 0.007

Reference: the supplement of paper PMC6045584
